In patent US11008340B2, “Modulators of ROR-gamma” (Vitae Pharmaceuticals, LLC, priority 2015, dated 2021) one finds IC50 and Ki data, which are given here for 13 molecules.

Test [1] deals with T1, full-length RORγt in Jurkat cells (Homo sapiens, UniProt P51449).
T1 construct: transcriptional activity of the full-length RORγt in Jurkat cells; host or cells: Jurkat cells (ATCC TIB-152)
T1 sequence (P51449 1-497 isoform P51449-2): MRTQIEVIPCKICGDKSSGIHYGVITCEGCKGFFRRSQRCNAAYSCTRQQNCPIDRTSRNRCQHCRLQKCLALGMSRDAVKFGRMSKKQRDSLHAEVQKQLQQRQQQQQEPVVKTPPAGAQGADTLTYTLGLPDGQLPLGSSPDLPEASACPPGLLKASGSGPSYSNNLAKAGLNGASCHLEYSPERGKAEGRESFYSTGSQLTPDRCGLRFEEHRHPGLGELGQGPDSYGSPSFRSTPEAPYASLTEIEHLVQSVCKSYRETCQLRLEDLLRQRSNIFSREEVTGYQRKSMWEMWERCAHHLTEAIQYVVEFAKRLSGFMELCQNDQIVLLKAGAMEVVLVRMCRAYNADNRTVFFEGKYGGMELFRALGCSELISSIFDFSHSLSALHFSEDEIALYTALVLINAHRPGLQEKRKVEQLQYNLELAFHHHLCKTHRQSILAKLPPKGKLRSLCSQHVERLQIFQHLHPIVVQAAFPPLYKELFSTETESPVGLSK
Briefly: RORγt 5×RORE Assay in Jurkat Cells (Assay 2). It is filed as cell-based. The note with it: 5×RORE luciferase reporter. In a few lines: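 Inverse agonism measured as reduced NanoGlo signal from secreted NanoLuc in conditioned supernatant after 16-18 hrs compound exposure (37° C, 0.1% DMSO). Reporter: 5×RORE-driven secNluc, co-transfected with full-length RORγt into Jurkat cells cultured in delipidated-FBS, phenol-red-free RPMI.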
For orientation: Reporter assays use an easily measured gene product as a stand-in for the process of interest.

Test [2] has as its target T2, recombinant RORγ Ligand Binding Domain (LBD) protein (Homo sapiens, UniProt P51449).
T2 construct: 6×His; GST
T2 sequence (P51449 269-508 limits assumed): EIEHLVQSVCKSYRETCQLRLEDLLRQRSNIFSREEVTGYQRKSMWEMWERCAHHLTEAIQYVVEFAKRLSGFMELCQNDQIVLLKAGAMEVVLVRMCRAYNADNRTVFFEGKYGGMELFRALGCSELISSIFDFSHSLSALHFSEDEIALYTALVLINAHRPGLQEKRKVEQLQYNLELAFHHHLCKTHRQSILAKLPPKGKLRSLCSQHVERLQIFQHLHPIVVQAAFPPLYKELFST
Briefly: Radio-Ligand RORγ Binding Assay (Assay 1). The note with it: radio-ligand competition, RORγ LBD, read-out: Avg ROR Bind Ki. In a few lines: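 Cell-free SPA competition between compound and 25-hydroxy[26,27-^3H]-cholesterol for 6×His-GST-tagged RORγ LBD in 50 mM HEPES pH 7.4 with NaCl, MgCl2, glycerol, CHAPS, octylglucoside and DTT. Mix was shaken 20 min, held 10 min at rt, then read after poly-Lys YSi beads. IC50 came from a four-parameter fit, and Ki from radioligand KD.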

[3] abbreviates: Table 20, read-out: Avg ROR γt/5x IC5.
Where [4] appears, read: 25-hydroxy [26,27-3H]-cholesterol.

The structures appear in SMILES notation. Like-named read-outs stand apart in the source and are kept apart here. Where only a bound is given, the exact number is not on record here.

As usually defined, the Ki is the equilibrium dissociation constant of an inhibitor or competing ligand from its target. Regarding `CCC1CN(c2ncc(C(F)(F)F)cn2)Cc2cc(C(=O)N[C@@H](CO)c3ccc(S(=O)(=O)CC)cc3)ccc21` (single isomer, unassigned) [Hy7-17.1], the IC50 in test [1] (setting [3]) was under 100 nM. For the same molecule, in test [2] (setting [4]), the Ki is under 100 nM.

For `CC[C@H]1CN(c2ncc(Cl)cn2)Cc2cc(C(=O)N[C@@H](CO)c3ccc(S(=O)(=O)CC)cc3)ccc21` (single isomer, unassigned) [Hy7-6.2], the IC50 in test [1] (setting [3]) is over 1000 nM. Besides, the inhibition constant (Ki) in test [2] (setting [4]) is under 100 nM.

As for `CCS(=O)(=O)c1ccc([C@H](CO)NC(=O)c2ccc3c(OCc4ccc(C(F)(F)F)cc4)cc(C)nc3c2)cc1` [Hy1B-3, (R)-N-(1-(4-(ethylsulfonyl)phenyl)-2-hydroxyethyl)-2-methyl-4-((4-(trifluoromethyl)benzyl)oxy)quinoline-7-carboxamide], the IC50 in test [1] (read-out: Avg ROR γt/5x IC50) fell in the range of 100 to 1000 nM. Also, the Ki in test [2] (setting [4]) is under 100 nM.

For `CCC1CN(C2CCC(C(F)(F)F)CC2)Cc2cc(C(=O)NC(CO)c3ccc(S(=O)(=O)CC)cc3)ccc21` (single isomer, unassigned) [Hy7-35.2], the IC50 in test [1] (setting [3]) is over 1000 nM. Besides, the Ki in test [2] (setting [4]) is under 100 nM.

Turning to `CCC1c2ccc(C(=O)NC(CO)c3ccc(S(=O)(=O)CC)cc3)cc2CCN1CC1CCC(C(F)(F)F)CC1` (single isomer, unassigned) [Hy2A-28.2], in test [1] (read-out: Avg ROR γt/5x IC50), the IC50 fell in the range of 100 to 1000 nM. Also, the Ki in test [2] (setting [4]) was under 100 nM.

Consider `CCS(=O)(=O)c1ccc([C@H](CO)NC(=O)c2sc3nc(C)nc(OC[C@H]4CC[C@H](C(F)(F)F)CC4)c3c2C)cc1` [Hy6-4, N-((R)-1-(4-(ethylsulfonyl)phenyl)-2-hydroxyethyl)-2,5-dimethyl-4-(((1r,4R)-4-(trifluoromethyl)cyclohexyl)methoxy)thieno[2,3-d]pyrimidine-6-carboxamide], for which the IC50 in test [1] (read-out: Avg ROR γt/5x IC50) is under 100 nM. Besides, in test [2] (setting [4]), the Ki was under 100 nM.

For the molecule `CC[C@@H]1CN(c2ncc(-c3ncco3)cn2)Cc2cc(C(=O)N[C@@H](CO)c3ccc(S(=O)(=O)CC)cc3)ccc21` (single isomer, unassigned) [Hy7-33.1], the IC50 in test [1] (setting [3]) is under 100 nM. Also, the Ki in test [2] (setting [4]) is under 100 nM.

As for `CCS(=O)(=O)c1ccc([C@H](CO)NC(=O)c2ccc3c(OC[C@H]4CC[C@H](C(F)(F)F)CC4)nc(C4CC4)cc3c2)cc1` [Hy1A-21, 3-cyclopropyl-N-((R)-1-(4-(ethylsulfonyl)phenyl)-2-hydroxyethyl)-1-(((1r,4R)-4-(trifluoromethyl)cyclohexyl)methoxy)isoquinoline-6-carboxamide], the IC50 in test [1] (read-out: Avg ROR γt/5x IC50) was under 100 nM. In addition, in test [2] (setting [4]), the Ki was under 100 nM.

Take `CCS(=O)(=O)c1ccc(CNC(=O)c2ccc3c(OC[C@H]4CC[C@H](C(F)(F)F)CC4)nc(C)cc3c2)cc1` [Hy1A-6, N-(4-(ethylsulfonyl)benzyl)-3-methyl-1-(((1r,4r)-4-(trifluoromethyl)cyclohexyl)methoxy)isoquinoline-6-carboxamide]: the IC50 in test [1] (read-out: Avg ROR γt/5x IC50) was under 100 nM. Also, in test [2] (setting [4]), the Ki was under 100 nM.

Consider `CCS(=O)(=O)c1ccc([C@H](CO)NC(=O)c2ccc3c(OC[C@H]4CC[C@H](C(F)(F)F)CC4)nc(C)cc3c2)cc1` [Hy1A-10, N-((R)-1-(4-(ethylsulfonyl)phenyl)-2-hydroxyethyl)-3-methyl-1-(((1r,4R)-4-(trifluoromethyl)cyclohexyl)methoxy)isoquinoline-6-carboxamide], for which the IC50 in test [1] (read-out: Avg ROR γt/5x IC50) was under 100 nM. Further, the Ki in test [2] (setting [4]) is under 100 nM.

In the case of `CCS(=O)(=O)c1ccc(CNC(=O)c2cnc3c(c2)CCN(Cc2ccc(C#N)cc2)C3C(C)C)cc1` (single isomer, unassigned) [Hy2B-7.1], in test [1] (head without unit (Tables 15, 17), read-out: Avg ROR γt/5x IC50), the IC50 is 100 to 1000 nM. The Ki in test [2] (head without unit (Tables 15, 17)) was under 100 nM.

Regarding `CCS(=O)(=O)c1ccc(CNC(=O)c2sc3nc(C)nc(OCc4ccc(C(F)(F)F)cc4)c3c2C)cc1` [Hy6-1, N-(4-(ethylsulfonyl)benzyl)-2,5-dimethyl-4-((4-(trifluoromethyl)benzyl)oxy)thieno[2,3-d]pyrimidine-6-carboxamide], the IC50 in test [1] (read-out: Avg ROR γt/5x IC50) was 100 to 1000 nM. Also, the Ki in test [2] (setting [4]) is under 100 nM.

`CC[C@@H]1CN(c2ncc(C(F)(F)F)cn2)Cc2cc(C(=O)NCc3ccc(S(=O)(=O)CC)cc3)ccc21` (single isomer, unassigned) [Hy7-9.1]: the IC50 in test [1] (setting [3]) is under 100 nM. Besides, in test [2] (setting [4]), the Ki is under 100 nM.
